This note sets out measurements from patent publication US10988477B2 (Merck Patent GmbH, priority 2018, dated 2021).

GCN2 kinase, sequence (Q9P2K8 whole entry): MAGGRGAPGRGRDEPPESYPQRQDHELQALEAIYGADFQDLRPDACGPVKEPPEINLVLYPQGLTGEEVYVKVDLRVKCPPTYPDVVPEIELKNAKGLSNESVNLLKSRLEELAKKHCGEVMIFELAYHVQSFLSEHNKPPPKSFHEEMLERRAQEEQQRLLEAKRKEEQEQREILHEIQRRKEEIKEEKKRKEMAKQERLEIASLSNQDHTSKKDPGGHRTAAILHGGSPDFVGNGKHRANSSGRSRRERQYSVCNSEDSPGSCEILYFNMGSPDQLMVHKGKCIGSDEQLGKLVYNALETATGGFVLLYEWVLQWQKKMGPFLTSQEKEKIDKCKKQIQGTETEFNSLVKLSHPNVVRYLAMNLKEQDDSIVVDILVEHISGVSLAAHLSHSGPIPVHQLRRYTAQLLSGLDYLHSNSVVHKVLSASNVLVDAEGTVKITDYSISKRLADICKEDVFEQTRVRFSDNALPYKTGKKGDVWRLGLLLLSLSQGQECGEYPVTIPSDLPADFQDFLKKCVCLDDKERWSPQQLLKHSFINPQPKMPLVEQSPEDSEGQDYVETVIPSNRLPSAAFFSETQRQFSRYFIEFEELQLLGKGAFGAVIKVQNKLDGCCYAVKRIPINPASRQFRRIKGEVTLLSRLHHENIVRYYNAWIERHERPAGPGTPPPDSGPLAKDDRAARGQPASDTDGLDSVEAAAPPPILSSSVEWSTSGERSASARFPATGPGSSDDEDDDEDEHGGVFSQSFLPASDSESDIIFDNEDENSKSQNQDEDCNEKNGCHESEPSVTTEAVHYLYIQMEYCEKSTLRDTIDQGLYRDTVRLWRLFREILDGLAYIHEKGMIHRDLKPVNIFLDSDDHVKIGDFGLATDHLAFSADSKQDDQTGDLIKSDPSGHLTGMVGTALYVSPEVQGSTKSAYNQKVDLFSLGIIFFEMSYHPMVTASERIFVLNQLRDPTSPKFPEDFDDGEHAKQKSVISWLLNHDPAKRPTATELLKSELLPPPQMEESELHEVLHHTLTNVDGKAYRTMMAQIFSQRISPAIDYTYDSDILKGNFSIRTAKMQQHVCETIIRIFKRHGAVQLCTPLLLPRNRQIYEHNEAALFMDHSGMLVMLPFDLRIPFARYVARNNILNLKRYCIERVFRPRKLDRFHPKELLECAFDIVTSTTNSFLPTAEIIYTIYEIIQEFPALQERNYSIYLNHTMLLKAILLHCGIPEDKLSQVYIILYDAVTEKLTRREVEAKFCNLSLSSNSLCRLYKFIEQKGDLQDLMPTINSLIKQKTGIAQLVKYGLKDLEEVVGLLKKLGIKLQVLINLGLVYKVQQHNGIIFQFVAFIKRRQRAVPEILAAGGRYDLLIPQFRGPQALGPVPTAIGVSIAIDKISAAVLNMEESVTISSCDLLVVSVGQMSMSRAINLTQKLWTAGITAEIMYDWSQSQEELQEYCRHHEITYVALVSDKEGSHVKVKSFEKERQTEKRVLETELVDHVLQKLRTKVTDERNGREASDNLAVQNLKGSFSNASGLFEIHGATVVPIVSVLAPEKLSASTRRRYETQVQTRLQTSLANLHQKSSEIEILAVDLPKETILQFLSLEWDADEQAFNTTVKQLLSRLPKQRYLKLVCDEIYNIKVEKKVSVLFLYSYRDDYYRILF

One assay concerns the target GCN2 kinase (Homo sapiens, UniProt Q9P2K8). Kind of assay: GCN2 enzyme inhibition assay (Transcreener ADP2 fluorescence polarization). Format: biochemical. The following applies: Enzyme activity for compounds of Formula IV; Ki(app), 280 μM ATP, 25° C. The protocol:
Compounds were screened for their ability to inhibit GCN2 kinase activity using a Transcreener® ADP^2 fluorescence polarization assay that detects ADP levels (BellBrook Labs, WI). Assays were carried out in a buffer consisting of 25 mM Tris-HCl (pH 7.5), 50 mM NaCl, 10 mM MgCl2 and 1 mM DTT. Final substrate concentrations were 280 μM ATP and 200 μM peptidic substrate ([…]-OH [(RS)7], Bachem, Switzerland). Assays were carried out at 25° C. in the presence of a (typical) final concentration of 4 nM GCN2 kinase. An assay buffer containing GCN2 kinase and (RS)7 was prepared. 4.7 μL of this stock solution was placed per well of a black, low volume, 384-well microtitre plate (e.g. catalogue number 3676, Corning Inc., NY). To this was added […] of DMSO containing serial dilutions of the test compound (typical final concentrations of test compound were 0 to 8 μM). The plate was incubated for 10 minutes at 25° C. prior to the addition of 4.7 μL of ATP stock buffer to initiate the enzyme reaction. The reaction was allowed to proceed for 1 hour at 25° C., prior to the addition of 10 μL detection buffer (consisting of appropriate concentrations of ADP^2 antibody and ADP Alexa633 tracer in 1× stop and detect buffer as supplied by BellBrook Labs). […] Percentage inhibition of enzyme activity was then calculated at each compound dose. IC50 and Ki(app) (using known assay and kinetic parameters) values were calculated from percentage inhibition data using a non-linear, tight-binding algorithm. All data analysis was undertaken using the Screener® software package (Genedata, Switzerland).
For orientation: Fluorescence polarisation rises when a labelled molecule tumbles more slowly, as on binding a larger partner.
In turn, `CC1CC(C(N)=O)CN(c2ccnc(-c3cnc4cnc(C(F)F)cn34)n2)C1` (mixture of isomers) [IV-107, 1-(2-(6-(Difluoromethyl)imidazo[1,2-a]pyrazin-3-yl)pyrimidin-4-yl)-5-methylpiperidine-3-carboxamide] yielded a Ki of 10 to 100 nM.
As for `C[C@H]1[C@@H](c2cn[nH]c2)OCCN1c1ccnc(-c2cnc3cnc(Cl)cn23)n1` (racemic) [IV-235, Cis-4-(2-(6-Chloroimidazo[1,2-a]pyrazin-3-yl)pyrimidin-4-yl)-3-methyl-2-(1H-pyrazol-4-yl)morpholine], the Ki was less than 10 nM.
The same measure, in the same setting: in the case of `C[C@H]1[C@H](c2cn[nH]c2)OCCN1c1ccnc(-c2cnc3cnc(Cl)cn23)n1` (racemic) [IV-236, Trans-4-(2-(6-Chloroimidazo[1,2-a]pyrazin-3-yl)pyrimidin-4-yl)-3-methyl-2-(1H-pyrazol-4-yl)morpholine] it was 10 to 100 nM; in that of `C[C@H]1[C@H](c2cn[nH]c2)OCCN1c1ccnc(-c2cnc3cnc(C#N)cn23)n1` (racemic) [IV-281, Trans-3-(4-(3-Methyl-2-(1H-pyrazol-4-yl)morpholino)pyrimidin-2-yl)imidazo[1,2-a]pyrazine-6-carbonitrile], 10 to 100 nM.
Turning to `C[C@H]1[C@@H](c2cn[nH]c2)OCCN1c1ccnc(-c2cnc3cnc(Br)cn23)n1` (racemic) [IV-306, Cis-4-(2-(6-Bromoimidazo[1,2-a]pyrazin-3-yl)pyrimidin-4-yl)-3-methyl-2-(1H-pyrazol-4-yl)morpholine], the Ki is less than 10 nM.
Consider `C[C@H]1[C@H](c2cn[nH]c2)OCCN1c1ccnc(-c2cnc3cnc(Br)cn23)n1` (racemic) [IV-312, Trans-4-(2-(6-Bromoimidazo[1,2-a]pyrazin-3-yl)pyrimidin-4-yl)-3-methyl-2-(1H-pyrazol-4-yl)morpholine], for which the Ki was in the range of 10 to 100 nM.
Still for that read-out and setting: in the case of `C[C@H]1NCCN(c2ccnc(-c3cnc4cnc(Br)cn34)n2)[C@H]1c1cn[nH]c1` (racemic) [IV-342, Cis-6-Bromo-3-(4-(3-methyl-2-(1H-pyrazol-4-yl)piperazin-1-yl)pyrimidin-2-yl)imidazo[1,2-a]pyrazine] it was 100 to 1000 nM; in that of `C[C@H]1CN(c2ccnc(-c3cnc4cnc(C(F)(F)F)cn34)n2)C[C@@H](c2c[nH]cn2)O1` (racemic) [IV-380, Cis-2-(1H-Imidazol-4-yl)-6-methyl-4-(2-(6-(trifluoromethyl)imidazo[1,2-a]pyrazin-3-yl)pyrimidin-4-yl)morpholine], less than 10 nM.
`C[C@@H]1CN(c2ccnc(-c3cnc4cnc(C(F)(F)F)cn34)n2)C[C@@H](c2c[nH]cn2)O1` (racemic) [IV-381, Trans-2-(1H-Imidazol-4-yl)-6-methyl-4-(2-(6-(trifluoromethyl)imidazo[1,2-a]pyrazin-3-yl)pyrimidin-4-yl)morpholine] had a Ki of 10 to 100 nM.
Turning to `CS(C)(=O)=N[C@@H]1C[C@H](c2cn[nH]c2)CN(c2ccnc(-c3cnc4cnc(C(F)(F)F)cn34)n2)C1` (racemic) [IV-395], the Ki fell in the range of 10 to 100 nM.
The compound `C[C@H]1[C@@H](C(N)=O)CCCN1c1ccnc(-c2cnc3cnc(C(F)(F)F)cn23)n1` (racemic) [IV-453, Cis-2-Methyl-1-(2-(6-(trifluoromethyl)imidazo[1,2-a]pyrazin-3-yl)pyrimidin-4-yl)piperidine-3-carboxamide] showed a Ki of less than 10 nM.
On the same count and under the same terms, in the case of `C[C@@H]1CN(c2ccnc(-c3cnc4cnc(C(F)(F)F)cn34)n2)C[C@H](c2ccnn2C)N1` (racemic) [IV-667, Cis-3-(4-(3-Methyl-5-(1-methyl-1H-pyrazol-5-yl)piperazin-1-yl)pyrimidin-2-yl)-6-(trifluoromethyl)imidazo[1,2-a]pyrazine] it was 100 to 1000 nM.
With `C[C@@H]1CN(c2ccnc(-c3cnc4cnc(C(F)(F)F)cn34)n2)C[C@H](c2cncn2C)N1` (racemic) [IV-672, Cis-3-(4-(3-Methyl-5-(1-methyl-1H-imidazol-5-yl)piperazin-1-yl)pyrimidin-2-yl)-6-(trifluoromethyl)imidazo[1,2-a]pyrazine], the Ki was in the range of 100 to 1000 nM.
Turning to `C[C@H]1NCCN(c2ccnc(-c3cnc4cnc(C(F)(F)F)cn34)n2)[C@H]1c1cn[nH]c1` (relative stereo) [IV-208, Cis-3-(4-(3-Methyl-2-(1H-pyrazol-4-yl)piperazin-1-yl)pyrimidin-2-yl)-6-(trifluoromethyl)imidazo[1,2-a]pyrazine], the Ki fell in the range of 10 to 100 nM.
`CCN1CCN(c2ccnc(-c3cnc4cnc(Br)cn34)n2)[C@@H](C)[C@H]1c1cn[nH]c1` (relative stereo) [IV-390, Cis-6-Bromo-3-(4-(4-ethyl-2-methyl-3-(1H-pyrazol-4-yl)piperazin-1-yl)pyrimidin-2-yl)imidazo[1,2-a]pyrazine] showed a Ki of less than 10 nM.
Same read-out and setting: in the case of `C[C@@H]1[C@H](c2cn[nH]c2)N(c2ccnc(-c3cnc4cnc(Br)cn34)n2)CCN1C` (relative stereo) [IV-393, Cis-6-Bromo-3-(4-(3,4-dimethyl-2-(1H-pyrazol-4-yl)piperazin-1-yl)pyrimidin-2-yl)imidazo[1,2-a]pyrazine] it was 100 to 1000 nM; in that of `C[C@H]1NCCN(c2ccnc(-c3cnc4cnc(C5CC5)cn34)n2)[C@H]1c1cn[nH]c1` (relative stereo) [IV-412, Cis-6-Cyclopropyl-3-(4-(3-methyl-2-(1H-pyrazol-4-yl)piperazin-1-yl)pyrimidin-2-yl)imidazo[1,2-a]pyrazine], 100 to 1000 nM.

Staying with this assay, now noted: compounds of Formula II; 280 μM ATP, 4 nM GCN2 kinase.
`FC(F)c1ccc2ncc(-c3ccnc(N4CCCNCC4)c3)n2n1` had a Ki of 10 to 1000 nM.
`CS(=O)(=O)NCC1CC(C#N)CN(c2cc(-c3cnc4ccc(C(F)F)nn34)ncn2)C1` (stereo not drawn) [listing 1 of 3 here] had a Ki of 10 to 1000 nM.
On to `CS(=O)(=O)NCC1CC(C#N)CN(c2cc(-c3cnc4ccc(C(F)F)nn34)ncn2)C1` (stereo not drawn) [listing 2 of 3 here], for which the Ki was in the range of 10 to 1000 nM.
With `CS(=O)(=O)NCC1CC(C#N)CN(c2cc(-c3cnc4ccc(C(F)F)nn34)ncn2)C1` (stereo not drawn) [listing 3 of 3 here], the Ki is less than 10 nM.
As to `CC1C(CNS(C)(=O)=O)OCCN1c1cc(-c2cnc3ccc(C(F)F)nn23)ncn1` (single isomer, unassigned) [II-371, N-((4-(6-(6-(Difluoromethyl)imidazo[1,2-b]pyridazin-3-yl)pyrimidin-4-yl)-3-methylmorpholin-2-yl)methyl)methanesulfonamide], the Ki was less than 10 nM.
In the case of `CC1C(CNS(C)(=O)=O)C(F)(F)C(C)CN1c1cc(-c2cnc3ccc(C(F)F)nn23)ncn1` (single isomer, unassigned) [II-467, N-((1-(6-(6-(Difluoromethyl)imidazo[1,2-b]pyridazin-3-yl)pyrimidin-4-yl)-4,4-difluoro-2,5-dimethylpiperidin-3-yl)methyl)methanesulfonamide], the Ki is less than 10 nM.
The compound `CC1C(CNS(C)(=O)=O)C(F)(F)C(C)CN1c1cc(-c2cnc3ccc(C(F)F)nn23)ncn1` (single isomer, unassigned) [II-468, N-((1-(6-(6-(Difluoromethyl)imidazo[1,2-b]pyridazin-3-yl)pyrimidin-4-yl)-4,4-difluoro-2,5-dimethylpiperidin-3-yl)methyl)methanesulfonamide] registered a Ki of 10 to 1000 nM.
Take `CS(=O)(=O)C1CCCN(c2cc(-c3cnc4ccc(C(F)F)nn34)ncn2)C1` (single isomer, unassigned) [II-530, 6-(Difluoromethyl)-3-(6-(3-(methylsulfonyl)piperidin-1-yl)pyrimidin-4-yl)imidazo[1,2-b]pyridazine]: the Ki lay in the range of 10 to 1000 nM.
The compound `N#CCC1CN(c2cc(-c3cnc4ccc(C(F)F)nn34)ncn2)CCO1` (single isomer, unassigned) [II-564, 2-(4-(6-(6-(Difluoromethyl)imidazo[1,2-b]pyridazin-3-yl)pyrimidin-4-yl)morpholin-2-yl)acetonitrile] had a Ki of 10 to 1000 nM.
The compound `N#CCC1CN(c2cc(-c3cnc4ccc(C(F)F)nn34)ncn2)CCO1` (single isomer, unassigned) [II-565, 2-(4-(6-(6-(Difluoromethyl)imidazo[1,2-b]pyridazin-3-yl)pyrimidin-4-yl)morpholin-2-yl)acetonitrile] returned a Ki of 10 to 1000 nM.
`CC1C(N=S(C)(C)=O)CCCN1c1cc(-c2cnc3ccc(C(F)F)nn23)ncn1` (single isomer, unassigned) [II-581, ((1-(6-(6-(Difluoromethyl)imidazo[1,2-b]pyridazin-3-yl)pyrimidin-4-yl)-2-methylpiperidin-3-yl)imino)dimethyl-λ^6-sulfanone] came in with a Ki of 10 to 1000 nM.
Consider `CC1C(N=S(C)(C)=O)CCCN1c1cc(-c2cnc3ccc(C(F)F)nn23)ncn1` (single isomer, unassigned) [II-582, ((1-(6-(6-(Difluoromethyl)imidazo[1,2-b]pyridazin-3-yl)pyrimidin-4-yl)-2-methylpiperidin-3-yl)imino)dimethyl-λ^6-sulfanone], for which the Ki is more than 1000 nM.

Staying with this assay, now noted: compounds of Formula V; 280 μM ATP, 4 nM GCN2 kinase.
As for `CP(C)(=O)C1CC(c2cn[nH]c2)CN(c2ccnc(-c3cnc4sc(C(F)(F)F)cn34)n2)C1` (racemic) [Compound V-6, 5-[4-[3-Dimethylphosphoryl-5-(1H-pyrazol-4-yl)-1-piperidyl]pyrimidin-2-yl]-2-(trifluoromethyl)imidazo[2,1-b]thiazole], the Ki lay in the range of 100 to 1000 nM.
